Molecules are shown by their SMILES.

The subject of one test is NOF. The experiment in a line: alamarBlue cytotoxicity assay, normal oral fibroblasts NOF. The settings on record: Homo sapiens, Fibroblast, 72 h of incubation. The class given is cell-based. Here is the method: For comparative analysis, primary cultures of normal oral fibroblasts (NOF) were isolated from fragments of healthy patient gingiva, using the same technique previously described for CAFs above, and then maintained in culture for up to 15 passages.
(§1) To assess the cytotoxicity of the GLI inhibitor GANT61 (Sigma-Aldrich, St. Louis, MO, USA) in tumor and non-tumor cell lines, an alamarBlue assay (Sigma-Aldrich Chemical Co, St. Louis, MO, USA) was performed after 72 h of exposure to the inhibitor, as described by Ahmed et al., 1994 [46]. Cells were distributed on 96-well plates at a density of 7 × 10^4 cells/mL for adhered cells, and 3 × 10^5 cells/mL for cells in suspension. All tested compounds were dissolved in DMSO, added to wells containing 100 µL of cells in complete medium, and then incubated for 72 h. […] Absorbance was measured at 570 nm (reduced) and 595 nm (oxidized) wavelengths, using a Spectramax 190 plate reader (Molecular Devices; Sunnyvale, CA, USA).
(§2) Statistical analyses were performed, using GraphPad Prism v. […] Data were analyzed according to distribution along the normal Gaussian curve. […] Differences between groups resulting from in vitro assays were evaluated by ANOVA (analysis of variance) testing, followed by the Student–Newman–Keuls test. […]
For orientation: Resazurin is reduced to fluorescent resorufin, in cell work by metabolically active cells.

Another test relates to GLI3 mRNA. Nature of the test: qPCR of HH pathway gene expression in HSC3 cells, GLI3. The class given is cell-based, human. The settings on record: HSC3, 18 and 36 µM, 12 h, not significant. The method, then: (§3) For total RNA isolation, HSC3 cells were plated on 6-well plates, at a density of 0.7 × 10^5 cells/mL (5 mL/well volume), and incubated overnight, followed by treatment with the GLI inhibitor for 12 h at both concentrations (18 and 36 µM).
(§4) All experiments were carried out under DNAse/RNAse-free conditions. Silica microcolumns were used for RNA extraction, using an RNeasy Plus Mini Kit (QIAGEN, Hilden, Germany). Extracted RNA was analyzed for quantity and purity, using a NanoDrop®® 1000 spectrophotometer (Thermo Fisher Scientific, Waltham, MA, USA).
(§5) Reverse transcription was performed by using Superscript VILO™ transcriptase enzyme (Invitrogen, Carlsbad, CA, USA). The cDNA samples were stored at −20 °C, until the time of use.
(§6) HH pathway component expression was evaluated in cells treated or not with GANT61 by qPCR, using TaqMan Gene Expression Assays^TM inventoried for the PTCH1 (Hs00181117_m1), GLI1 (Hs01110766_m1), GLI2 (Hs01119974_m1), and GLI3 (Hs00609233_m1) genes, as well as for B2 M (Hs99999907_m1). […]
(§7) Following amplification and dissociation runs, quantification cycle (Cq) values were obtained by using the ViiA7^TM System Operational Program (AppliedByosistems, Foster City, CA, USA). For relative quantification, the comparative method (2−∆∆Cq) described by Livak and Schmittgen, 2001 was used. […]
In general terms: In qPCR the cycle at which signal appears reflects the starting amount.

The next test relates to GLI2 mRNA. The experiment in a line: qPCR of HH pathway gene expression in HSC3 cells, GLI2. The class given is cell-based, human. Conditions: HSC3, 18 and 36 µM, 12 h, not significant. Here is the method: as §3, §4, §5, §6, §7
The next test relates to PTCH1 mRNA. The experiment in a line: qPCR of HH pathway gene expression in HSC3 cells, PTCH1. The settings on record: HSC3, 36 µM, 12 h, not significant. The class given is cell-based, human. The method, then:
as §3, §4, §5, §6, §7

A further test deals with SCC25. Nature of the test: alamarBlue cytotoxicity assay, SCC25. The class given is cell-based, human. Conditions: 72 h of incubation. Here is the method: as §1, with “h. Eight concentrations of GANT61 (0.19 to 50 µg/mL), Doxorubicin (Laboratory IMA S.A.I.C., Buenos Aires, Argentina), and 5-Fluorouracil (5-FU, Sigma-Aldrich, St. Louis, MO, USA), both used as positive controls at concentrations ranging from 0.03 to 5 µg/mL, were added to respective wells.” for “h.”
as §2

The subject of the next test is APC03. The experiment in a line: alamarBlue cytotoxicity assay, APC03. The format is cell-based, human. The settings on record: 72 h of incubation. Here is the method: as §1, with “h. Eight concentrations of GANT61 (0.19 to 50 µg/mL), Doxorubicin (Laboratory IMA S.A.I.C., Buenos Aires, Argentina), and 5-Fluorouracil (5-FU, Sigma-Aldrich, St. Louis, MO, USA), both used as positive controls at concentrations ranging from 0.03 to 5 µg/mL, were added to respective wells.” for “h.”
as §2

The next test has as its system PTCH1 protein. Nature of the test: Western blot of HH pathway proteins in HSC3 cells, PTCH1. Conditions: HSC3, 18 and 36 µM, 24 h. The class given is cell-based, human. Here is the method: After culturing, HSC3 cells were washed with PBS and denatured by using cell lysis buffer containing 50 mM Tris-HCl (pH 7.4), 1% Triton X-100, 150 mM NaCl, 0.5 mM EGTA, 0.5 EDTA mM, and an anti-protease cocktail (Complete Pro-inhibitor Cocktail Tablets, Roche, Basel, Switzerland). Protein extracts (50 μg) were separated by SDS-PAGE and transferred to Hybond-C Extra (GE Healthcare, Chicago, IL, USA) nitrocellulose membranes. The following antibodies were used in the Western blot assay: mouse […] against Sonic Hedgehog (1:500, Clone 5 H4, Cat. number NBP2-22126, Novus Biologicals, Centennial, CO, USA), rabbit polyclonal against Gli1 (1:500, Novus Biologicals, Cat. number NB600-600), rabbit polyclonal against Patched 1 (1:500, Novus Biologicals, Cat.number NB200-118), and rabbit polyclonal against Smoothened (1:1000, Cat. number AB72130, Abcam, Cambridge, MA, USA). The secondary antibodies were anti-mouse IgG (1:10,000, Santa Cruz Biotechnology, Santa Cruz, CA, USA) and anti-rabbit IgG (1:10,000, GE Healthcare, Chicago, IL, USA). Signal detection was performed by using an ECL + Chemiluminescence Detection System (PerkinElmer, Villebon sur-Yvette, France). The antibody actin (1:10000, Cat. Number15 G5 A11/E2, Invitrogen, Carlsbad, CA, USA) was selected as an endogenous control for analysis of HH pathway component expression in HSC3 cells. […]
(In general: A western blot detects proteins with antibodies after separation by electrophoresis.)

What is called IC50 is the concentration that gives 50% inhibition. Read a low IC50 as higher potency. Regarding `O=c1[nH]cc(F)c(=O)[nH]1` [5-FU, 5-fluorouracil], in the test with NOF, the IC50 stood at 39.6 µM.

As for `CN(C)c1ccccc1CN1CCCN(Cc2ccccc2N(C)C)C1c1ccncc1` [GANT61], the “mRNA expression of GLI3” value in the test on GLI3 mRNA is “Reductions in mRNA expression”. Besides, the “mRNA expression of GLI2” value in the test on GLI2 mRNA is recorded as “Reductions in mRNA expression”. For the same molecule, in the test with PTCH1 mRNA, the “mRNA expression of PTCH1” value is “Reductions in mRNA expression”. In addition, the IC50 in the test on SCC25 was 53.3 µM; in the test with APC03, over 116 µM. Moreover, the PTCH1 protein expression entry in the test with PTCH1 protein is reported as “reduced levels”.

The values above are taken from PMC7503713, “GANT61 Reduces Hedgehog Molecule (GLI1) Expression and Promotes Apoptosis in Metastatic Oral Squamous Cell Carcinoma Cells” (International Journal of Molecular Sciences, 2020).
